Test: Gastrointestinal tolerability of capsules (solid dosage form)
Type: in vivo
Conditions: solid dosage form (capsules, Table 2)
Description: Furthermore, the non-hygroscopic nature of the acid form makes it desirable as active pharmaceutical ingredient. To further protect against any possible gastrointestinal intolerance that could result from the acid form, the tablets are enteric-coated and a modified-release agent is added to control any rapid release of the drug in the stomach and the intestine, respectively.

## NCCCS(=O)(=O)[O-].[Na+] [3-amino-1-propanesulfonic acid sodium salt]
  gastrointestinal symptoms (i.e. nausea and vomiting): associated with gastrointestinal symptoms
